The results in this text go back to article PMC7180572, “5-Alkylamino-N-phenylpyrazine-2-carboxamides: Design, Preparation, and Antimycobacterial Evaluation” (Molecules, 2020).

The term IC50 denotes the concentration at which inhibition is half-maximal. By MIC is commonly meant the smallest concentration in the dilution series that meets the test's criterion for growth inhibition. One may read the melting point as the temperature of the solid-liquid transition.

Values after ≈ are worked out from the molar mass of the structure shown. Like-named read-outs stand apart in the source and are kept apart here. Bounds are passed on as bounds.

Series [1] concerns Mycobacterium tuberculosis H37Ra ITM-M006710 (ATCC 9431). The series is described as follows: Microdilution broth, modified Microplate Alamar Blue Assay, whole cell growth inhibition. The conditions noted are these: for MIC: Mycobacterium tuberculosis, read-out: MIC Mtb H37Ra. Format: cell-based. (In broth dilution the organism is exposed to a series of concentrations in liquid medium.)

Series [2] has as its system Mycobacterium aurum DSM 43999 (ATCC 23366). The series is described as above. Format: cell-based. The note with it: in vitro, Middlebrook 7H9 broth, resazurin; for MIC: Mycolicibacterium aurum, read-out: MIC Mycobacterium aurum. For orientation: The colour change of resazurin is a common sign of viable cells or microbes.
In series [3] the test system is Mycobacterium smegmatis DSM 43465 (ATCC 607). The description is as above. It is filed as cell-based. The conditions noted are these: in vitro, Middlebrook 7H9 broth, resazurin; for MIC: Mycolicibacterium smegmatis, read-out: MIC Mycobacterium smegmatis.
Another series concerns HepG2 cells. The series is described as follows: HepG2 cytotoxicity, CellTiter 96 (MTS) assay. Format: cell-based, human. The conditions noted are these: for IC50: 24 h incubation, > means higher concentration not reproducible due to precipitation, read-out: HepG2 IC50; for SI, selectivity index: IC50 (HepG2)/MIC against Mtb H37Ra (in µM).
Series [4] relates to Candida albicans ATCC 24433, CCM 8320. Briefly: Antifungal microdilution broth method (EUCAST). It is filed as cell-based.
For series [5], the system named is Candida krusei ATCC 6258, CCM 8271. Briefly: Antifungal microdilution broth method (EUCAST). Format: cell-based. The conditions noted are these: Pichia kudriavzevii.
Series [6] has as its system Candida parapsilosis ATCC 22019, CCM 8260. The series is described as follows: Antifungal microdilution broth method (EUCAST). The note with it: Lodderomyces parapsilosis. Format: cell-based.
The test system of series [7] is Candida tropicalis ATCC 750, CCM 8264. Briefly: Antifungal microdilution broth method (EUCAST). The conditions noted are these: 48 h, standards, read-out: MIC against C. tropicalis. Format: cell-based.
Series [8] deals with Aspergillus fumigatus ATCC 204305. The series is described as follows: Antifungal microdilution broth method (EUCAST). It is filed as cell-based. The conditions noted are these: ATCC204305, 48 h, standards, read-out: MIC against Aspergillus fumigatus.
The test system of series [9] is Aspergillus flavus CCM 8363. The series is described as follows: Antifungal microdilution broth method (EUCAST). Format: cell-based. The note with it: CCM8363, 48 h, standards, read-out: MIC against Aspergillus flavus.
Series [10] relates to Absidia corymbifera CCM 8077 (Lichtheimia corymbifera). The series is described as follows: Antifungal microdilution broth method (EUCAST). It is filed as cell-based. The conditions noted are these: CCM8077, 48 h, standards, read-out: MIC against Lichtheimia corymbifera.
The test system of series [11] is Trichophyton interdigitale ATCC 9533, CCM 8377. The series is described as follows: Antifungal microdilution broth method (EUCAST). Format: cell-based. The note with it: 72 h, standards, read-out: MIC against Trichophyton interdigitale.
Where [12] appears, read: in vitro, Middlebrook 7H9 broth, resazurin.
[13] abbreviates: 48 h, standards, read-out: MIC against Candida albicans.
Where [14] appears, read: 48 h, standards, read-out: MIC against C. krusei.
Setting [15] is: 48 h, standards, read-out: MIC against C. parapsilosis.

Turning to “5-Chloro-N-(5-chloro-2-hydroxyphenyl)pyrazine-2-carboxamide [Compound 6]”, the “MIC Mtb H37Ra” value in series [1] (setting [12]) is on record as no less than 500 µg/mL. For the same compound, the “MIC Mycobacterium aurum” value in series [2] is given as no less than 500 µg/mL. In addition, the “MIC Mycobacterium smegmatis” value in series [3] is no less than 500 µg/mL. Moreover, the IC50 in the series with HepG2 cells was greater than 250 µM.

In the case of `C[C@@H]1[C@H](O)[C@@H](C)/C=C/C=C/C=C/C=C/C=C/C=C/C=C/[C@H](O[C@@H]2O[C@H](C)[C@@H](O)[C@H](N)[C@@H]2O)C[C@@H]2O[C@](O)(C[C@@H](O)C[C@@H](O)[C@H](O)CC[C@@H](O)C[C@@H](O)CC(=O)O[C@H]1C)C[C@H](O)[C@H]2C(=O)O` [Amphotericin B, amphotericin B, reference compound], the minimum inhibitory concentration (MIC) in [4] (setting [13]) was found to be 0.5 µg/mL; in series [4] (Table 3, read-out: MIC CA (Candida albicans)), 0.54 µM; in series [4] (Table 3, standard, read-out: MIC CA (Candida albicans)), 0.5 µg/mL; in series [5] (setting [14]), 1 µg/mL; in [5] (Table 3, standard, read-out: MIC CK (Candida krusei)) it was 1 µg/mL; in [5] (Table 3, read-out: MIC CK (Candida krusei)), 1.08 µM. Besides, the MIC in [6] (setting [15]) stood at 0.5 µg/mL; in series [6] (Table 3, standard, read-out: MIC CP (Candida parapsilosis)), 0.5 µg/mL; in series [6] (Table 3, read-out: MIC CP (Candida parapsilosis)), 0.54 µM; in series [7] it was 1 µg/mL (≈ 1.08 µM); in series [8], 1 µg/mL (≈ 1.08 µM); in series [9] it was 8 µg/mL (≈ 8.66 µM). Moreover, the MIC in series [10] was 0.5 µg/mL (≈ 0.541 µM); in [11], 2 µg/mL (≈ 2.16 µM).

Regarding `O=C(Nc1cccc(C(F)(F)F)c1)c1cnc(Cl)cn1` [Compound 1, 5-Chloro-N-(3-(trifluoromethyl)phenyl)pyrazine-2-carboxamide], the MIC was 7.81 µg/mL (≈ 25.9 µM) in [1] (setting [12]), no less than 500 µg/mL in [2] and no less than 500 µg/mL in series [3]. In addition, the IC50 with HepG2 cells (Homo sapiens, HepG2) stood at 124 µM. Besides, the “SI, selectivity index” value in the series on HepG2 cells worked out at 4.78.

In the case of `O=C(Nc1cccc(O)c1)c1cnc(Cl)cn1` [Compound 2, 5-Chloro-N-(3-hydroxyphenyl)pyrazine-2-carboxamide], the MIC in series [1] (setting [12]) is 31.2 µg/mL (≈ 125 µM); in [2], no less than 500 µg/mL; in series [3], no less than 500 µg/mL. Moreover, in the series with HepG2 cells (Homo sapiens, HepG2), the half-inhibitory concentration (IC50) was greater than 500 µM. Moreover, the “SI, selectivity index” value in the series with HepG2 cells is listed as greater than 3.99.

With `O=C(Nc1ccc(O)cc1)c1cnc(Cl)cn1` [Compound 3, 5-Chloro-N-(4-hydroxyphenyl)pyrazine-2-carboxamide], the MIC in series [1] (setting [12]) was 62.5 µg/mL (≈ 250 µM); in [2], no less than 250 µg/mL; in series [3], no less than 250 µg/mL. For the same compound, the IC50 in the series on HepG2 cells (Homo sapiens, HepG2) came out at 350 µM. Moreover, in the series with HepG2 cells, the “SI, selectivity index” value is listed as 1.40.

Regarding `Cc1ccc(NC(=O)c2cnc(Cl)cn2)cc1` [Compound 4, 5-Chloro-N-(p-tolyl)pyrazine-2-carboxamide], the MIC in series [1] (setting [12]), in [2] and in [3] was no less than 500 µg/mL each time. Moreover, the 50% inhibitory concentration (IC50) in the series with HepG2 cells (Homo sapiens, HepG2) is greater than 50 µM.

As for `CCc1ccc(NC(=O)c2cnc(Cl)cn2)cc1` [Compound 5, 5-Chloro-N-(4-ethylphenyl)pyrazine-2-carboxamide], the MIC is 250 µg/mL (≈ 955 µM) in series [1], no less than 500 µg/mL in series [2] and no less than 500 µg/mL in series [3]. The IC50 with HepG2 cells (Homo sapiens, HepG2) is greater than 50 µM.

Regarding `CCCNc1cnc(C(=O)Nc2ccc(Cl)cc2O)cn1` [Compound 6a, N-(4-chloro-2-hydroxyphenyl)-5-(propylamino)pyrazine-2-carboxamide], the melting point was 248.9 to 250 °C. Besides, the MIC in series [1] (setting [12]) is no less than 500 µg/mL. The MIC in series [2] was no less than 500 µg/mL. Further, the minimum inhibitory concentration (MIC) in [3] was determined as 3.91 µg/mL (≈ 12.7 µM).

The compound `CCCCNc1cnc(C(=O)Nc2ccc(Cl)cc2O)cn1` [Compound 6b, 5-(Butylamino)pyrazine-N-(4-chloro-2-hydroxyphenyl)-2-carboxamide] showed a melting point of 221.8 to 225.4 °C. In addition, in series [1] (setting [12]), the MIC is no less than 500 µg/mL. The MIC in [2] was no less than 500 µg/mL. The MIC in series [3] came out at 3.91 µg/mL (≈ 12.2 µM). For the same compound, the IC50 in the series on HepG2 cells (Homo sapiens, HepG2) is greater than 50 µM.

Consider `CO[C@H]1/C=C/O[C@@]2(C)Oc3c(C)c(O)c4c(O)c(c(/C=N/N5CCN(C)CC5)c(O)c4c3C2=O)NC(=O)/C(C)=C\C=C\[C@H](C)[C@H](O)[C@@H](C)[C@@H](O)[C@@H](C)[C@H](OC(C)=O)[C@@H]1C` [RIF, rifampicin, reference compound], for which the MIC in series [1] (setting [12]) lay within 0.0039 to 0.0078 µg/mL (≈ 0.00474 to 0.00948 µM); in series [2], 0.39 to 0.78 µg/mL (≈ 0.474 to 0.948 µM); in series [3], 6.25 to 12.5 µg/mL (≈ 7.59 to 15.2 µM).

On to `C[C@@H](c1ncncc1F)[C@](O)(Cn1cncn1)c1ccc(F)cc1F` [voriconazole, reference compound], for which the MIC is greater than 16 µg/mL in series [4] (setting [13]); 0.5 µg/mL in series [5] (setting [14]); 8 µg/mL in series [6] (setting [15]); greater than 16 µg/mL in series [7]; 1 µg/mL (≈ 2.86 µM) in series [8]; greater than 16 µg/mL in [9]. The MIC in series [10] and in [11] was greater than 16 µg/mL throughout.
